Data taken from patent publication US20250319213A1, “FUNCTIONALIZED BISAMINOTHIOL DERIVATIVES, COMPLEXES WITH THESE BISAMINOTHIOL DERIVATIVES AND USE OF SAID COMPLEXES AS DIAGNOSTICS AND THERAPEUTICS” (ABX ADVANCED BIOCHEMICAL COMPOUNDS – BIOMEDIZINISCHE …, priority 2022, published 2025).

Assays:
PSMA [1] = molecular target: T1, PSMA (Homo sapiens, UniProt Q04609); experiment: Direct binding affinity on LNCaP cells (saturation); settings: [99mTc]TcO complex of the listed compound, saturation 0.3-40 nM, 1 h 37° C., mean ± SEM, read-out: Kd [nM] of [99mTc]TcO-complexes
T1 construct: host or cells: LNCaP human prostate carcinoma cells
Experimental: (§1) Competition, saturation and internalization assays were assessed using the high PSMA expressing human prostate carcinoma cell line LNCaP (ATCC® CRL-1740). The cells were grown as monolayer at 37° C. in a humidified atmosphere comprising 5% CO2 and 95% air in RPMI medium including 10% FCS (Merck KGAA, Germany). After washing the confluent cells twice with phosphate buffered saline (PBS) and detaching them with trypsin/EDTA (0.05%/0.02%), the cells were suspended in medium and counted (Casy TT, Omni Life Science, Germany).
For saturation monolayer of LNCaP cells were seeded, 5×10^4 cells/well in 48-well plates two days before the assay. On the day of saturation, after aspirating the medium, 160 μL of medium (for ^99mTc-labeled radioligand with D-mannitol (1 mg/mL)) were pipetted per well, for non-specific binding samples including 100 μM 2-PMPA. After preincubation for 5 min, 40 μL activity ([^68Ga]Ga-PSMA-11 or ^99mTc-labeled radioligand solution) were added (total volume/well: 200 μL). Eight concentrations ranged between 0.3 and 40 nM.
(§2) After 1 hour of incubation at 37° C. both for competition and saturation samples, the supernatants were aspirated and the cells washed twice with cold PBS. The cell lawn was lysed with 500 μL NaOH/SDS (0.1 M/1%) by shaking for 3 to 5 minutes. After transferring the lysates into measuring tubes, the activity of the samples was measured in a gamma counter (2480 Automatic Gamma Counter Wizard 2, Perkin Elmer, USA).
(§3) The half maximal inhibitory concentrations (IC50) and the dissociations constants (Kd) were calculated by fitting the data using a nonlinear curve-fitting program (GraphPad Prism 9). With the Kd value of [^68Ga]Ga-PSMA-11 on LNCaP and the known concentration of [^68Ga]Ga-PSMA-11 in the competition assay the inhibition constants (Ki) was also determined with the curve-fitting program.

PSMA [2] = molecular target: T1, PSMA; experiment: Competitive binding affinity on LNCaP cells against [68Ga]Ga-PSMA-11 (competition); settings: natRe complex of the listed compound, 1 nM [68Ga]Ga-PSMA-11, 1 h 37° C., mean ± SEM
Experimental: as §1
For competition monolayer of LNCaP cells were seeded, 1×10^5 cells/well in 24-well plates two days before the assay. On the day of competition, after aspirating the medium, 100 μL of PBS and, for competition 100 μL of different concentrations of the test compound in PBS (10^−12 to 10^−6 M) were pipetted into the wells, simultaneously to 400 μL of medium including 1 nM of [^68Ga]Ga-PSMA-11.
as §2, §3

[3] = system: subcutaneous LNCaP tumor xenografts; experiment: SPECT/CT and PET/CT imaging in LNCaP tumor bearing mice; type: in vivo; settings: LNCaP xenograft model
Experimental: A prostate cancer xenograft model was generated via subcutaneous injection of human LNCaP cells into the right shoulder of 8-12 week-old male nude mice (Rj:NMRI-Foxn1^nu/nu, Janvier Labs, Le Genest-Saint-Isle, France). Imaging studies were performed when tumors reached a diameter of >6 mm. General anesthesia was induced and maintained with inhalation of 10% (v/v) desflurane in […] oxygen/air. During anesthesia, animals were continuously warmed at 37° C.
Small animal single-photon emission computed tomography (SPECT) was performed using the nanoSPECT/CT scanner (Mediso Medical Imaging Systems) equipped with an APT63 aperture consisting of four M3 multi-pinhole collimators. Each animal received 30 MBq of ^99mTc-labeled compounds delivered in 0.2 mL of Dulbecco's phosphate-buffered saline as a single intravenous injection through a tail vein catheter. Photon emission was recorded using frame times of 60 s (1 h scan: 40-70 min), 90 s (4 h scan, 3.5-4.5 h), and 320 s (20 h scan, 18.5-21.5 h), and binned simultaneously within the 20% energy window of the 140.5 keV photopeak. With each SPECT scan, a corresponding CT image was recorded and used for anatomical referencing and attenuation correction. SPECT images were reconstructed using the Tera-Tomo™ three-dimensional (3D) algorithm at normal range with a voxel size of 0.4 mm and applying corrections for scatter attenuation, and decay.
Small animal positron emission tomography (PET) was performed using the nanoPET/CT scanner (Mediso Medical Imaging Systems). Each animal received 10 MBq of the radiolabeled reference compound [^68Ga]Ga-PSMA-11 delivered in Dulbecco's phosphate-buffered saline as a single intravenous injection through a tail vein catheter. Emission of the 511 keV annihilation photons was recorded continuously at a coincidence mode of 1:5 for 60 min following radiotracer injection. With each PET scan, a corresponding CT image was recorded and used for anatomical referencing and attenuation correction. Three-dimensional list mode data were binned using the 400-600 keV energy window. PET images of the 40-60 min time frame were reconstructed using the Tera-Tomo™ three-dimensional (3D) algorithm with a voxel size of 0.4 mm and applying corrections for random events, scatter, attenuation, and decay.
Three-dimensional VOIs were created applying fixed threshold for delineation of tumor (30%), muscle (0%); and kidneys (39%). Standardized uptake values (SUV=[MBq detected activity/mL tissue]/[MBq injected activity/g body weight], mL/g) were determined and reported as max SUV (VOI-maximum). Time-activity curves were generated and further analyzed using Prism (GraphPad Software, San Diego CA, USA).

[4] = Product stability in mouse plasma (in vitro); type: in vitro ADME; settings: mean ± SD (n = 3-4), normalized to fraction immediately after preparation
Experimental: (§4) In brief, the freshly produced ^99mTc-labeled radioligand solution (10-20 MBq, 20-100 μL) was added to the respective medium (200-400 μL), vortexed quickly, and shook gently at the respective temperature mentioned below. At certain time points, samples were taken, diluted, and measured by radio-RP-HPLC. Hereby, investigation of plasma samples included protein precipitation with the 4-fold volume of an ice-cold mixture of methanol/water (4/1, v/v), intensive shaking (5 min) and centrifugation (14,000 rpm, 10 min), before inspection of the supernatant. In addition, the recovery of extracted activity was calculated after activity measurement of supernatant and residue by a gamma counter.

[5] = Product stability in DPBS at 25° C.; type: physicochemical; settings: DPBS (+Ca2+, +Mg2+), mean ± SD, normalized to fraction immediately after preparation
Experimental: as §4

[6] = Determination of log D values (shake-flask, octanol/medium); type: physicochemical; settings: for LogD (shake-flask, octanol/medium) Na-phosphate pH 7.4: 4.4 mM Na2HPO4, 2.2 mM NaH2PO4, pH 7.4
Experimental: Log D values were determined for different media by the shake-flask method (Andrés, A.; Rosés, M.; Ràfols, C.; Bosch, E.; Espinosa, S.; Segarra, V.; Huerta, J. M. Setup and validation of shake-flask procedures for the determination of partition coefficients (log D) from low drug amounts. Eur. J. Pharm. Sci. 2015, 76, 181-191.). In preparation, octanol was saturated with each of the used buffer solutions and vice versa. To 3 mL of octanol, together with 3 mL of buffer solution 200-300 μL of the ^99mTc-labeled radioligand (15-25 MBq, samples in triplicate) were added and shaken vigorously for 30 min. After centrifugation at 9,000 rpm for 15 min, samples were taken from both separated phases and measured by gamma-counter. Log D values were calculated as the ratio of radioactivity determined in octanol and aqueous phase.

[7] = Product stability at room temperature (without addition of any media); type: physicochemical; settings: no media, radio-RP-HPLC
Experimental: as §4

LNCaP cells = experiment: Determination of the internalization (surface binding and internalized activity); type: cell-based, human; settings: 1 h
Experimental: as §1
For internalization LNCaP and PC3 cells were seeded, 1×10^5 cells/well in 24-well plates two days before the assay. On the day of internalization, after aspirating the medium, 100 μL of PBS and, for non-specific binding samples, 100 μL 2-PMPA (100 μM) were pipetted into the wells, followed by 400 μL medium including activity. The concentration of the ^99mTc-labeled radioligands was 25 nM. After 1 h of incubation at 37° C. and adjacent well plates at 4° C., the supernatant was removed and the cells washed with cold PBS. Surface-bound activity was stripped with 4° C. cold acid-wash buffer (0.2 M glycine, pH 2.8) for 5 min. The acid wash buffer was transferred from the plate wells to measuring tubes, as was the PBS buffer after washing once (binding on the surface). Cytosolic activity was determined after treatment with cell lysis buffer (0.1 M NaOH/1% SDS). Cell surface and cytosolic activity were measured separately in a gamma counter. Determination of protein content from cell lysate was performed using a spectrophotometer (NanoDrop, Thermo Fisher Scientific, USA) at an absorbance of 280 nm.

[8] = as early as 1 hour after injection

T1 sequence (Q04609 whole entry): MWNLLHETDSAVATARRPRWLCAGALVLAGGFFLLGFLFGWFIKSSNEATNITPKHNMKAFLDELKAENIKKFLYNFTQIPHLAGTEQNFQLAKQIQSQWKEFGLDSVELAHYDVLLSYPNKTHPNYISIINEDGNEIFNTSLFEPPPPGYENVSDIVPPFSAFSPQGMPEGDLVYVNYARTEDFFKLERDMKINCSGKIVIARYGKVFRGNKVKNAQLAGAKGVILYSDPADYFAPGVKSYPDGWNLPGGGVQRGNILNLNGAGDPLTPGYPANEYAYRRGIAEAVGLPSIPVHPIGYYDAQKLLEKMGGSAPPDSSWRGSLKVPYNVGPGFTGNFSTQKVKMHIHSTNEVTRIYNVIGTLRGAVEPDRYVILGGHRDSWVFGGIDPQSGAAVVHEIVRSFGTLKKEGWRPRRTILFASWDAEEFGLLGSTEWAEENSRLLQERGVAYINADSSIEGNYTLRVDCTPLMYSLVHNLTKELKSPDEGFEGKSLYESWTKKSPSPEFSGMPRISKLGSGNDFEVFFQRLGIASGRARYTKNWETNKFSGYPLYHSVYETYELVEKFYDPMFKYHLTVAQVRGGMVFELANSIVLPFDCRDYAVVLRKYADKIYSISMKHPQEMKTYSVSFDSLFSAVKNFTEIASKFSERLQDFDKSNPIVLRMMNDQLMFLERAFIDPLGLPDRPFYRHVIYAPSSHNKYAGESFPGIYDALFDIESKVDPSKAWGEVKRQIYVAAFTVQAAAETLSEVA

| Structure (SMILES) | Kd (PSMA [1]) [nM] | Ki (PSMA [2]) [nM] | Fraction of radioligand after 6 h in mouse plasma at 37° C. [4] [%] | Fraction of radioligand in DPBS at 25° C., 1 h [5] [%] | Fraction of radioligand in DPBS at 25° C., 2 h [5] [%] | Fraction of radioligand in DPBS at 25° C., 4 h [5] [%] | Fraction of radioligand in DPBS at 25° C., 20 h [5] [%] | LogD (shake-flask, octanol/medium) Na-phosphate pH 7.4 [6] | LogD (shake-flask, octanol/medium) PBS 0.1M pH 7.4 [6] | LogD (shake-flask, octanol/medium) TRIS buffer 0.1M pH 7.4 [6] | other results |
| --- | --- | --- | --- | --- | --- | --- | --- | --- | --- | --- | --- |
| CC(C)(S)CNCCN(CCCCC(=O)N[C@@H](Cc1ccccc1)C(=O)N[C@@H](Cc1ccccc1)C(=O)N[C@@H](CCCCNC(=O)CCCCCCC(=O)NCCCC[C@H](NC(=O)N[C@@H](CCC(=O)O)C(=O)O)C(=O)O)C(=O)O)CC(C)(C)S [Compound 1] | 15.5 ± 3.2 | 4.8 ± 3.4 |  |  |  |  |  |  |  |  |  |
| CC(C)(S)CNCCN(CCCCC(=O)N[C@@H](CCCCNC(=O)CCCCCCC(=O)NCCCC[C@H](NC(=O)N[C@@H](CCC(=O)O)C(=O)O)C(=O)O)C(=O)O)CC(C)(C)S [Compound 3] | 15.8 ± 9.1 | 7.3 ± 1.6 |  |  |  |  |  |  |  |  |  |
| CC(C)(S)CNCCN(CCCCC(=O)N[C@@H](CCC(=O)O)C(=O)N[C@@H](CCC(=O)O)C(=O)N[C@H](CCCCNC(=O)CCCCCCC(=O)NCCCC[C@H](NC(=O)N[C@@H](CCC(=O)O)C(=O)O)C(=O)O)C(=O)O)CC(C)(C)S [Compound 5] | 7.2 ± 1.7 | 9.3 ± 0.9 |  |  |  |  |  |  |  |  | pharmacokinetic properties and organ distribution compared to the prior art [3]: faster pharmacokinetic properties and a more favorable organ distribution; tumor-to-kidney ratio [3, 8]: High; tumor-to-muscle ratio [3, 8]: High |
| CC1(C)CN(CCCCC(=O)N[C@@H](Cc2ccccc2)C(=O)N[C@@H](Cc2ccccc2)C(=O)N[C@H](CCCCNC(=O)CCCCCCC(=O)NCCCC[C@H](NC(=O)N[C@@H](CCC(=O)O)C(=O)O)C(=O)O)C(=O)O)CC[N]2CC(C)(C)[S][99Tc]2(=[O])[S]1 (stereo partly shown) [[^99mTc]TcO-2] |  |  | 98.3 ± 1.1 | 89.9 ± 2.3 | 97.7 ± 2.3 | 80.7 ± 12.0 | 89.2 ± 2.7 | −2.08 ± 0.01 | −2.16 ± 0.03 | −2.16 ± 0.02 |  |
| CC1(C)CN(CCCCC(=O)N[C@@H](CCCCNC(=O)CCCCCCC(=O)NCCCC[C@H](NC(=O)N[C@@H](CCC(=O)O)C(=O)O)C(=O)O)C(=O)O)CC[N]2CC(C)(C)[S][99Tc]2(=[O])[S]1 (stereo partly shown) [[^99mTc]TcO-3] |  |  | 98.5 ± 0.8 | 98.2 ± 1.9 | 97.3 ± 3.6 | 98.4 ± 1.0 | 89.1 ± 7.4 | −1.93 ± 0.01 | −2.07 ± 0.01 | −2.08 ± 0.02 | Fraction of radioligand at indicated time point after preparation, 0 h ([7]; 0 h): 96%; Fraction of radioligand at indicated time point after preparation, 2 h ([7]; 2 h): 93%; Fraction of radioligand at indicated time point after preparation, 4 h ([7]; 4 h): 92%; Fraction of radioligand at indicated time point after preparation, 6 h ([7]; 6 h): 91%; % Internalization, 37° C. (LNCaP cells; 37° C.): 35.8%; Internalization, 4° C. (% AD/mg Protein) (LNCaP cells; cytosolic activity, 25 nM radioligand, 4° C., mean ± SEM): 0.7 ± 0.2 % AD/mg Protein; Internalization, 37° C. (% AD/mg Protein) (LNCaP cells; cytosolic activity, 25 nM radioligand, 37° C., mean ± SEM): 1.0 ± 0.3 % AD/mg Protein; Binding, 4° C. (% AD/mg Protein) (LNCaP cells; surface-bound activity, 25 nM radioligand, 4° C., mean ± SEM): 2.1 ± 1.2 % AD/mg Protein; Binding, 37° C. (% AD/mg Protein) (LNCaP cells; surface-bound activity, 25 nM radioligand, 37° C., mean ± SEM): 1.8 ± 0.3 % AD/mg Protein |
